Experimental data taken from patent publication US20230279025A1, “KRAS G12D INHIBITORS” (Mirati Therapeutics, Inc., priority 2020, published 2023).

Columns and labels:
KRas G12D [1] = target: T1, KRas G12D (Homo sapiens (Human), UniProt P01116, G12D); assay: KRas G12D Surface Plasmon Resonance (SPR) Binding Assay; details: Biacore T200, immobilized biotinylated KRAS protein, 1:1 binding model
Description: Briefly, 1L of 1.05X HBS-Mg buffer (262.5 mM Bioultra Hepes, pH 7.5, 157.5 mM NaCl, 105 mM MgCl2, 0.525 mM TCEP, 0.0305% Brij-35) was prepared and filter sterilized using a 0.22 μm bottle top filter. Approximately 50 mL of 1.05X HBS-Mg buffer was removed and saved for future dilutions. A 50 mL aliquot of DMSO (Sigma Aldrich DMSO Lot. #SHBK2079) was added and continued to stir for 10 minutes, creating the final 1.0X HBS-Mg buffer (250 mM Bioultra Hepes pH 7.5, 150 mM NaCl, 100 mM MgCl2, 0.5 mM TCEP, 0.03% Brij-35).
Biacore T200 instrument was primed using 1.0X HBS-Mg buffer before docking a GE Streptavidin (SA) chip and then primed two additional times prior to beginning the immobilization step. All immobilized protein mixtures were created using 3-5 mg/mL Biotinylated Avidin-tagged KRAS protein using the following immobilization settings: SA chip type, 1 flow cells per cycle, 720 second contact time, and 5 ul/min flow rate. Normalization of the detector was also performed during the immobilization step using the GE BiaNormalize solution.
All compounds were diluted to 10 mM in 100% DMSO prior to being diluted 20X in 1.05X buffer. Another 10X dilution was created using 1.0X buffer prior to performing a series of 3X dilutions to create a compound concentration curve using the following assay settings: 20C analysis temperature, General Settings=10 Hz data collection rate and multi-detection; Assay Steps=all set to LMW kinetics; Cycle Types=LMW kinetics (60 s contact time, 120 s dissociation time, 100 ul/min flow rate, extra wash after injection with 50% DMSO, flow path 1,2,3,4); Flow path detection=2-1, 4-3). Data evaluation was performed using the Biacore T200 Evaluation software and data fit to 1:1 binding model. ND=not determined.
Target sequence in this assay (P01116-2 other isoform, or with tags, fused parts or gaps G12D): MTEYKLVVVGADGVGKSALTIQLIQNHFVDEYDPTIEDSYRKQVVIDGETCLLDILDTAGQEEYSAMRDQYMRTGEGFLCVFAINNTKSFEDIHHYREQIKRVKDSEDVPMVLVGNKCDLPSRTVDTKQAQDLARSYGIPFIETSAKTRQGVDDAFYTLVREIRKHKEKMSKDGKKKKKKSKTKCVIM

KRas G12D [2] = target: T1, KRas G12D; assay: KRas G12D Binding Assay (TR-FRET displacement of Cy5 labelled tracer); details: GDP-loaded KRAS G12D (amino acids 1:169), 60 minute incubation at 22° C.
Description: After a 60 minute incubation at 22° C., the reaction was measured using a PerkinElmer EnVision multimode plate reader via TR-FRET dual wavelength detection, and the percent of control (POC) calculated using a ratiometric emission factor. […] The POC values were fit to a 4-parameter logistic curve and the IC50 value was determined as the concentration where the curve crosses 50 POC.
ND stands for “not determined.”
Target sequence in this assay (P01116 other isoform, or with tags, fused parts or gaps G12D): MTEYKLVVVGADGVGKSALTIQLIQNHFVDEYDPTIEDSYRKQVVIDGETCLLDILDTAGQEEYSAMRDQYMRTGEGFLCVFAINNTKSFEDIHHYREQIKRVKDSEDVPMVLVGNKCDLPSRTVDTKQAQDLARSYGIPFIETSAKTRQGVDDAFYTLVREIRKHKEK

Compound | Kd (KRas G12D [1]) [µM] | IC50 (KRas G12D [2]) [µM]
CCO[C@@H]1C[C@@H](COc2nc(N3C[C@H]4CC[C@@H](C3)N4)c3cnc(-c4cccc5cccc(Cl)c45)c(F)c3n2)N(C)C1 [Example 43, 4-((1R,5S)-3,8-diazabicyclo[3.2.1]octan-3-yl)-7-(8-chloronaphthalen-1-yl)-2-(((2S,4R)-4-ethoxy-1-methylpyrrolidin-2-yl)methoxy)-8-fluoropyrido[4,3-d]pyrimidine] | 0.188 | 0.0722
CN1CCC[C@H]1COc1nc(N2C[C@H]3CC[C@@H](C2)N3)c2cnc(-c3cccc4ccc(F)c(Cl)c34)c(F)c2n1 [Example 44, 4-((1R,5S)-3,8-diazabicyclo[3.2.1]octan-3-yl)-7-(8-chloro-7-fluoronaphthalen-1-yl)-8-fluoro-2-(((S)-1-methylpyrrolidin-2-yl)methoxy)pyrido[4,3-d]pyrimidine] | 0.0317 | 0.0337
Fc1c(-c2cccc3cccc(Cl)c23)ncc2c(N3C[C@H]4CC[C@@H](C3)N4)nc(OCC34CCCN3CCC4)nc12 [Example 45, 4-((1R,5S)-3,8-diazabicyclo[3.2.1]octan-3-yl)-7-(8-chloronaphthalen-1-yl)-8-fluoro-2-((tetrahydro-1H-pyrrolizin-7a(5H)-yl)methoxy)pyrido[4,3-d]pyrimidine] | 0.0051 | 0.0055
Oc1cc(-c2ncc3c(N4C[C@H]5CC[C@@H](C4)N5)nc(OCC4(C(F)(F)F)CCCC4)nc3c2F)c2ccccc2c1 [Example 46, 4-(4-((1R,5S)-3,8-diazabicyclo[3.2.1]octan-3-yl)-8-fluoro-2-((1-(trifluoromethyl)cyclopentyl)methoxy)pyrido[4,3-d]pyrimidin-7-yl)naphthalen-2-ol] | 0.798 | 0.721
CCCOc1nc(N2C[C@H]3CC[C@@H](C2)N3)c2cnc(-c3cc(O)cc4ccccc34)c(F)c2n1 [Example 47, 4-(4-((1R,5S)-3,8-diazabicyclo[3.2.1]octan-3-yl)-8-fluoro-2-propoxypyrido[4,3-d]pyrimidin-7-yl)naphthalen-2-ol] | 0.51 | 0.265
Oc1cc(-c2ncc3c(N4C[C@H]5CC[C@@H](C4)N5)nc(OCC(F)(F)F)nc3c2F)c2ccccc2c1 [Example 48, 4-(4-((1R,5S)-3,8-diazabicyclo[3.2.1]octan-3-yl)-8-fluoro-2-(2,2,2-trifluoroethoxy)pyrido[4,3-d]pyrimidin-7-yl)naphthalen-2-ol] | 0.931 | 0.434
Oc1cc(-c2ncc3c(N4C[C@H]5CC[C@@H](C4)N5)nc(OC[C@@H]4CCCN4)nc3c2F)c2ccccc2c1 [Example 50, 4-(4-((1R,5S)-3,8-diazabicyclo[3.2.1]octan-3-yl)-8-fluoro-2-(((S)-pyrrolidin-2-yl)methoxy)pyrido[4,3-d]pyrimidin-7-yl)naphthalen-2-ol] | 0.0021 | 0.0025
Oc1cc(-c2ncc3c(N4C[C@H]5CC[C@@H](C4)N5)nc(OCC4(C(F)(F)F)CC4)nc3c2F)c2ccccc2c1 [Example 51, 4-(4-((1R,5S)-3,8-diazabicyclo[3.2.1]octan-3-yl)-8-fluoro-2-((1-(trifluoromethyl)cyclopropyl)methoxy)pyrido[4,3-d]pyrimidin-7-yl)naphthalen-2-ol] | 0.611 | 0.292
Oc1cc(-c2ncc3c(N4C[C@H]5CC[C@@H](C4)N5)nc(OCC(F)(F)C(F)F)nc3c2F)c2ccccc2c1 [Example 52, 4-(4-((1R,5S)-3,8-diazabicyclo[3.2.1]octan-3-yl)-8-fluoro-2-(2,2,3,3-tetrafluoropropoxy)pyrido[4,3-d]pyrimidin-7-yl)naphthalen-2-ol] | 0.507 | 0.318
Fc1c(-c2cccc3cccc(Cl)c23)ncc2c(N3C[C@H]4CC[C@@H](C3)N4)nc(OCC3COC3)nc12 [Example 53, 4-((1R,5S)-3,8-diazabicyclo[3.2.1]octan-3-yl)-7-(8-chloronaphthalen-1-yl)-8-fluoro-2-(oxetan-3-ylmethoxy)pyrido[4,3-d]pyrimidine] | 4.37 | 1.88
Fc1c(-c2cccc3cccc(Cl)c23)ncc2c(N3C[C@H]4CC[C@@H](C3)N4)nc(OCC34CCCCN3CCC4)nc12 (stereo partly drawn) [Example 54, 4-((1R,5S)-3,8-diazabicyclo[3.2.1]octan-3-yl)-7-(8-chloronaphthalen-1-yl)-8-fluoro-2-((hexahydroindolizin-8a(1H)-yl)methoxy)pyrido[4,3-d]pyrimidine] | 0.118 | 0.0687
OC[C@H](O)COc1nc(N2C[C@H]3CC[C@@H](C2)N3)c2cnc(-c3cccc4cccc(Cl)c34)c(F)c2n1 [Example 55, (S)-3-((4-((1R,5S)-3,8-diazabicyclo[3.2.1]octan-3-yl)-7-(8-chloronaphthalen-1-yl)-8-fluoropyrido[4,3-d]pyrimidin-2-yl)oxy)propane-1,2-diol] | 22.4 | 6.13
OC[C@@H](O)COc1nc(N2C[C@H]3CC[C@@H](C2)N3)c2cnc(-c3cccc4cccc(Cl)c34)c(F)c2n1 [Example 56, (R)-3-((4-((1R,5S)-3,8-diazabicyclo[3.2.1]octan-3-yl)-7-(8-chloronaphthalen-1-yl)-8-fluoropyrido[4,3-d]pyrimidin-2-yl)oxy)propane-1,2-diol] | 5.17 | 5.92
OCC(O)CCOc1nc(N2C[C@H]3CC[C@@H](C2)N3)c2cnc(-c3cccc4cccc(Cl)c34)c(F)c2n1 (stereo partly drawn) [Example 57, 4-((4-((1R,5S)-3,8-diazabicyclo[3.2.1]octan-3-yl)-7-(8-chloronaphthalen-1-yl)-8-fluoropyrido[4,3-d]pyrimidin-2-yl)oxy)butane-1,2-diol] | > 1000 | 7.29
OCC[C@@H](CO)Oc1nc(N2C[C@H]3CC[C@@H](C2)N3)c2cnc(-c3cccc4cccc(Cl)c34)c(F)c2n1 [Example 58, (S)-2-((4-((1R,5S)-3,8-diazabicyclo[3.2.1]octan-3-yl)-7-(8-chloronaphthalen-1-yl)-8-fluoropyrido[4,3-d]pyrimidin-2-yl)oxy)butane-1,4-diol] | 4.73 | 2.33
OCC(COc1nc(N2C[C@H]3CC[C@@H](C2)N3)c2cnc(-c3cccc4cccc(Cl)c34)c(F)c2n1)c1cccnc1 (stereo partly drawn) [Example 59, 3-((4-((1R,5S)-3,8-diazabicyclo[3.2.1]octan-3-yl)-7-(8-chloronaphthalen-1-yl)-8-fluoropyrido[4,3-d]pyrimidin-2-yl)oxy)-2-(pyridin-3-yl)propan-1-ol] | 1.12 | 0.946
O=C(O)CCOc1nc(N2C[C@H]3CC[C@@H](C2)N3)c2cnc(-c3cccc4cccc(Cl)c34)c(F)c2n1 [Example 61, 3-((4-((1R,5S)-3,8-diazabicyclo[3.2.1]octan-3-yl)-7-(8-chloronaphthalen-1-yl)-8-fluoropyrido[4,3-d]pyrimidin-2-yl)oxy)propanoic acid compound with 2,2,2-trifluoroacetaldehyde] | 0.116 | 4.08
Oc1cc(-c2ncc3c(N4C[C@H]5CC[C@@H](C4)N5)nc(OCCc4ccccc4F)nc3c2F)c2ccccc2c1 [Example 67, 4-(4-((1R,5S)-3,8-diazabicyclo[3.2.1]octan-3-yl)-8-fluoro-2-(2-fluorophenethoxy)pyrido[4,3-d]pyrimidin-7-yl)naphthalen-2-ol] | 1.15 | 1.25
COCCCOc1nc(N2C[C@H]3CC[C@@H](C2)N3)c2cnc(-c3cc(O)cc4ccccc34)c(F)c2n1 [Example 68, 4-(4-((1R,5S)-3,8-diazabicyclo[3.2.1]octan-3-yl)-8-fluoro-2-(3-methoxypropoxy)pyrido[4,3-d]pyrimidin-7-yl)naphthalen-2-ol] | 0.293 | 0.257
OCCOc1nc(N2C[C@H]3CC[C@@H](C2)N3)c2cnc(-c3cc(O)cc4ccccc34)c(F)c2n1 [Example 69, 4-(4-((1R,5S)-3,8-diazabicyclo[3.2.1]octan-3-yl)-8-fluoro-2-(2-hydroxyethoxy)pyrido[4,3-d]pyrimidin-7-yl)naphthalen-2-ol] | 0.522 | 0.53
COCCOc1nc(N2C[C@H]3CC[C@@H](C2)N3)c2cnc(-c3cc(O)cc4ccccc34)c(F)c2n1 [Example 70, 4-(4-((1R,5S)-3,8-diazabicyclo[3.2.1]octan-3-yl)-8-fluoro-2-(2-methoxyethoxy)pyrido[4,3-d]pyrimidin-7-yl)naphthalen-2-ol] | 0.417 | 0.356
